Assay [1] has as its target T1, pyridoxal kinase (PDXK) (Homo sapiens, UniProt O00764).
T1 construct: wild-type full-length human PDXK, N-terminal His tag
T1 sequence (O00764 1-312): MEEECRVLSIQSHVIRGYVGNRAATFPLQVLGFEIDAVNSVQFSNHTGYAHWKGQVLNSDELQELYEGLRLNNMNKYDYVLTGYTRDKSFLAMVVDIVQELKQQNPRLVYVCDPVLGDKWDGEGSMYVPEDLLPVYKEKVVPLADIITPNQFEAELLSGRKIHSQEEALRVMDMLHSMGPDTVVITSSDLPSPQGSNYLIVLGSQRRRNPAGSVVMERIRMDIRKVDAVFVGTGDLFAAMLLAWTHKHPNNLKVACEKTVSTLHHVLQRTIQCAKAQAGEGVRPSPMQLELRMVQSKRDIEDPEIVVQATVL
Description: SPR (Biacore T200); also MST Kd =[…], and enzyme inhibition with EC50 […]. It counts as binding.

The target in assay [2] is T2, pyridoxal kinase (PDXK) (Mus musculus, UniProt Q8K183).
T2 construct: endogenous, mouse brain lysate
T2 sequence (Q8K183 1-312): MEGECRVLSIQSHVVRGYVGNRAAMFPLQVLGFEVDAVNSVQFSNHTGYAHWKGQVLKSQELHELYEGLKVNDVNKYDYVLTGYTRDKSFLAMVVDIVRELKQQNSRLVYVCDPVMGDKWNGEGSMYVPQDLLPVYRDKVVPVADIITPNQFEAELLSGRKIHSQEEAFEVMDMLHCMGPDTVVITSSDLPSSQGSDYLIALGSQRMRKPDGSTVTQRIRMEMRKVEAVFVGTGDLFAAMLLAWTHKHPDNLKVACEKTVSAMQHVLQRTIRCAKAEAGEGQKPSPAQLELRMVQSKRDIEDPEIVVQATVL
Kind of assay: competition of P57-Bio ([…]) affinity pull-down by P57 ([…]), Western blot. It counts as cell-based. (A western blot detects proteins with antibodies after separation by electrophoresis.)

In assay [3] the target is T3, pyridoxal kinase (PDXK) (Homo sapiens, UniProt O00764, D235A).
T3 construct: full-length human PDXK D235A, N-terminal His tag
T3 sequence (O00764 1-312 D235A): T1 sequence (O00764 1-312) with D235A
Kind of assay: inhibition of purified mutant enzyme (Fig. S5g). It counts as biochemical.

In assay [4] the target is T1, pyridoxal kinase (PDXK). Description: initial velocity kinetics, ATP varied at fixed PL. It counts as biochemical.

SMILES strings stand for the structures. Changes are numbered by the printed parent chain.

Broadly, the Kd is the free concentration of one partner at which half of the binding sites on the other are occupied at equilibrium, for simple one-to-one binding. A low value points to tighter binding. Turning to `C/C=C(\C)C(=O)O[C@@H]1C[C@H]2[C@@H](CC=C3C[C@@H](O[C@H]4C[C@H](OC)[C@H](O[C@H]5C[C@H](OC)[C@H](O[C@@H]6O[C@H](C)[C@@H](O)[C@H](OC)[C@H]6O)[C@@H](C)O5)[C@@H](C)O4)CC[C@@]32C)[C@@]2(O)CC[C@H](C(C)=O)[C@@]12C` [P57], on pyridoxal kinase (PDXK) [1], the Kd was found to be 3.5 µM. The “competition of P57-Bio (2.0 μM) affinity pull-down by P57 (20.0 μM), Western blo” value at pyridoxal kinase (PDXK) [2] is “immunoblotting showed GSTP1 and PDXK, but not neuromodulin, were sensitive to competition by excess P57”. For the same compound, the “inhibition of purified mutant enzyme (Fig. S5g)” value at pyridoxal kinase (PDXK) [3] was “the D235A mutation can reduce the binding stability to a certain extent, and partly reducing the inhibitory activity”.
As to `Nc1ncnc2c1ncn2[C@@H]1O[C@H](COP(=O)(O)OP(=O)(O)OP(=O)(O)O)[C@@H](O)[C@H]1O` [ATP], on pyridoxal kinase (PDXK) [4], the “initial velocity kinetics, ATP varied at fixed PL” value is “PL concentration was fixed and the concentrations of ATP were varied showed that both Km and Vmax values decreased”.

The record behind these values is publication PMC10522591, “Natural product P57 induces hypothermia through targeting pyridoxal kinase” (Nature Communications, 2023).
